Experimental data: ChEMBL document CHEMBL4184293, “Structure-based design and biological evaluation of inhibitors of the pseudomonas aeruginosa heme oxygenase (pa-HemO)” (Bioorg Med Chem Lett, 2018)
Calls of active or inactive are those of the source. The rule behind the calls is not given here.

How the values were obtained:
[1] = biological target: T1, Heme oxygenase (Pseudomonas aeruginosa) (UniProt O69002); test: Binding affinity to Pseudomonas aeruginosa HemO by STD-NMR method
T1 sequence (whole entry): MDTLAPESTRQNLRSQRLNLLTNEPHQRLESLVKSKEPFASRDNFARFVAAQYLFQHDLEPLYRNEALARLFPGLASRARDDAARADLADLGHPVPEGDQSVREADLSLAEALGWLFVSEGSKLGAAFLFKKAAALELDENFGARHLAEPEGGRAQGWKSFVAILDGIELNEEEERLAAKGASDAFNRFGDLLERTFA

Heme oxygenase = biological target: T2, Heme oxygenase (Pseudomonas aeruginosa, UniProt O69002); test: Binding affinity to Pseudomonas aeruginosa HemO by intrinsic fluorescence quenching assay
T2 sequence (O69002 whole entry): T1 sequence (whole entry)

[2] = biological target: T1, Heme oxygenase (Pseudomonas aeruginosa); test: Binding affinity to Pseudomonas aeruginosa HemO assessed as chemical shift perturbations after 2 hrs by 15N-1H TROSY HSQC NMR method
Pseudomonas aeruginosa [3] = test: Antibacterial activity against Pseudomonas aeruginosa PAO1 after 4 hrs in presence of heme or FeCl3; type: functional
Pseudomonas aeruginosa [4] = test: Antibiofilm activity against Pseudomonas aeruginosa PAO1 after 24 hrs by crystal violet staining based assay; type: functional

Structure (SMILES) | Kd (Heme oxygenase) [µM] | further results
O=C1/C(=C/c2ccccn2)SC(=S)N1CCc1nnn[nH]1 | 27 | Activity [1]: Active; Activity [2]: Active
COc1cccc(/C=C2\SC(=S)N(CCC(=O)O)C2=O)c1 | 25 | 
N#Cc1cccc(-c2ccc(C=C3SC(=S)N(CCC(=O)O)C3=O)o2)c1 | 13 | 
O=C1Nc2ccc(Cl)cc2/C1=C\c1ccc(-c2ccccc2)cc1 | 5.2 | MIC50 (Pseudomonas aeruginosa [3]): inactive; MBEC99.9 (Pseudomonas aeruginosa [4]): >300 µg/mL
O=C(O)CCN1C(=O)C(=Cc2ccc(-c3cccc(O)c3)o2)SC1=S | 1.1 | MIC50 (Pseudomonas aeruginosa [3]; PAO1, 4 h): > 300 µg/mL; Activity [2]: Active; MBEC99.9 (Pseudomonas aeruginosa [4]): >300 µg/mL
O=C(O)CCN1C(=O)/C(=C/c2ccc(O)c(O)c2)SC1=S | 57 | 
COc1ccc(/C=C2\SC(=S)N(CCC(=O)O)C2=O)cc1 | 23 | 
O=C(O)CCN1C(=O)/C(=C/c2ccc(Cl)cc2)SC1=S | 15 | 
O=C(O)CCN1C(=O)/C(=C/c2cn(Cc3ccccc3)c3ccccc23)SC1=S | 7.4 | 
O=C(O)CCN1C(=O)/C(=C/c2cccc(Nc3ccccc3)c2)SC1=S | 1.2 | MIC50 (Pseudomonas aeruginosa [3]; PAO1, 4 h): > 300 µg/mL; Activity [2]: Active; MBEC99.9 (Pseudomonas aeruginosa [4]): >300 µg/mL
O=C(O)CCN1C(=O)/C(=C/c2ccc(Cc3ccccc3)cc2)SC1=S | 7 | 
O=C(O)CCN1C(=O)C(=Cc2cccc3ccccc23)SC1=S | 13 | 
O=C(O)CCN1C(=O)/C(=C/c2ccc(F)cc2)SC1=S | 44 | 
CC(C)c1ccc(/C=C2\SC(=S)N(CCC(=O)O)C2=O)cc1 | 10 | 
O=C1/C(=C/c2ccco2)SC(=S)N1CCc1nn[nH]n1 | 26 | 
O=C(O)CCN1C(=O)/C(=C/c2ccco2)SC1=S | 38 | 
CN(C)CCN1C(=O)C(=Cc2ccc(-c3ccccc3)cc2)SC1=S | 18 | MIC50 (Pseudomonas aeruginosa [3]): inactive; MBEC99.9 (Pseudomonas aeruginosa [4]): >300 µg/mL
COC(=O)c1cc(-c2ccc(C=C3SC(=S)N(CCC(=O)O)C3=O)o2)ccc1N | 6.5 | 
O=C(O)CCN1C(=O)/C(=C/c2ccc(Oc3ccccc3)cc2)SC1=S | 6.5 | 
O=C1/C(=C/c2ccc(O)c(O)c2)SC(=S)N1CCc1nnn[nH]1 | 45 | 
O=C1NC(=S)SC1=Cc1ccc(-c2ccccc2)cc1 | 2.3 | MIC50 (Pseudomonas aeruginosa [3]): inactive; MBEC99.9 (Pseudomonas aeruginosa [4]): >300 µg/mL
NCCN1C(=O)/C(=C/c2ccc(-c3ccccc3)cc2)SC1=S | 43 | MIC50 (Pseudomonas aeruginosa [3]; PAO1, 4 h): > 300 µg/mL; MBEC99.9 (Pseudomonas aeruginosa [4]): >300 µg/mL
O=C(O)CCN1C(=O)C(=Cc2ccc(-c3ccccc3)cc2)SC1=S | 3.3 | MIC50 (Pseudomonas aeruginosa [3]; PAO1, 4 h): > 300 µg/mL; Activity [2]: Active; MBEC99.9 (Pseudomonas aeruginosa [4]): >300 µg/mL
O=C(O)CCN1C(=O)/C(=C/c2c[nH]c3ccccc23)SC1=S | 6.4 | 
O=C(O)CCN1C(=O)C(=Cc2cccc(-c3ccccc3)c2)SC1=S | 20 | 
COC(=O)c1ccc(-c2ccc(C=C3SC(=S)N(CCC(=O)O)C3=O)o2)cc1 | 28 | 
O=C(O)CCN1C(=O)/C(=C/c2ccc(Cl)c(Cl)c2)SC1=S | 14 | 
O=C(O)CCN1C(=O)/C(=C/c2ccccn2)SC1=S | 51 | 
COC(=O)c1cccc(-c2ccc(C=C3SC(=S)N(CCC(=O)O)C3=O)o2)c1 | 7.6 | 
O=C(O)CCN1C(=O)C(=Cc2ccc3ccccc3c2)SC1=S | 3.9 | 
